# Where “and” joins values, the source holds several entries; their conditions need not be identical. Identical values can stand only once.
# Key:
# [1] = test system: Escherichia coli ATCC 25922; experiment: ≥ marks a high value that may be exact or a test limit, other limits are often not marked, values filed in µg/mL are converted to µM
# [2] = test system: Staphylococcus aureus ATCC 25923; experiment: as above
MIC [1],MIC [2] [µM],Structure (SMILES)
15.2 µM,–,CC(C)C[C@H](NC(=O)[C@H](CCC(N)=O)NC(=O)[C@H](CCCN=C(N)N)NC(=O)[C@H](CCCN=C(N)N)NC(=O)[C@@H]1CCCN1C(=O)[C@H](C)N)C(=O)N[C@@H](CCCCN)C(=O)N[C@@H](Cc1c[nH]c2ccccc12)C(=O)O [APRRQLKW]
2.64 µM and 5.27 µM,–,CC[C@H](C)[C@H](NC(=O)[C@H](CCCCN)NC(=O)[C@H](CCCN=C(N)N)NC(=O)[C@H](CC(C)C)NC(=O)[C@H](CCCN=C(N)N)NC(=O)[C@H](CO)NC(=O)[C@H](Cc1c[nH]c2ccccc12)NC(=O)[C@@H](NC(=O)[C@@H](N)CCCCN)C(C)C)C(=O)N[C@@H](Cc1ccccc1)C(=O)N[C@@H](CO)C(=O)N[C@H](C(=O)N[C@@H](CCCN=C(N)N)C(N)=O)[C@@H](C)O [KVWSRLRKIFSTR]
90.5 µM,–,CC(C)C[C@H](NC(=O)[C@H](Cc1ccccc1)NC(=O)[C@@H]1CCCN1C(=O)[C@H](C)NC(=O)[C@H](Cc1c[nH]c2ccccc12)NC(=O)[C@H](C)NC(=O)[C@@H]1CCCN1C(=O)[C@H](Cc1ccccc1)NC(=O)[C@H](CCCN=C(N)N)NC(=O)[C@H](CCCN=C(N)N)NC(=O)[C@@H](N)C(C)C)C(=O)N[C@@H](CCCN=C(N)N)C(=O)N[C@@H](CCCN=C(N)N)C(N)=O [VRRFPAWAPFLRR]
90.5 µM,–,CC(C)C[C@H](NC(=O)[C@H](Cc1ccccc1)NC(=O)[C@@H]1CCCN1C(=O)[C@H](C)NC(=O)[C@H](C)NC(=O)[C@H](Cc1c[nH]c2ccccc12)NC(=O)[C@@H]1CCCN1C(=O)[C@H](Cc1ccccc1)NC(=O)[C@H](CCCN=C(N)N)NC(=O)[C@H](CCCN=C(N)N)NC(=O)[C@@H](N)C(C)C)C(=O)N[C@@H](CCCN=C(N)N)C(=O)N[C@@H](CCCN=C(N)N)C(N)=O [VRRFPWAAPFLRR]

# Second part, the compound before the results:
Structure (SMILES),MIC [1],MIC [2] [µM]
CC(C)[C@H](NC(=O)[C@H](CCCCN)NC(=O)[C@@H](N)Cc1ccccc1)C(=O)N[C@H](C(=O)N[C@@H](Cc1c[nH]c2ccccc12)C(=O)N[C@@H](CCCCN)C(=O)N[C@H](C(=O)N[C@@H](CCCCN)C(=O)N[C@@H](Cc1c[nH]c2ccccc12)C(=O)N[C@@H](Cc1c[nH]c2ccccc12)C(=O)N[C@@H](CCCCN)C(=O)NCC(N)=O)[C@@H](C)O)[C@@H](C)O [FKVTWKTKWWKG],4.38 µM,7.59
CC[C@H](C)[C@H](NC(=O)CN)C(=O)N[C@@H](CCSC)C(=O)N[C@@H](CC(=O)O)C(=O)N[C@@H](CO)C(=O)N[C@H](C(=O)N[C@@H](CCCCN)C(=O)N[C@@H](CC(N)=O)C(=O)N[C@@H](C)C(=O)N[C@@H](C)C(=O)N[C@@H](CCCCN)C(=O)N[C@@H](CC(N)=O)C(=O)N[C@@H](CC(C)C)C(=O)N[C@@H](C)C(=O)NCC(=O)N[C@@H](CCC(N)=O)C(=O)N[C@@H](CC(C)C)C(=O)N[C@@H](CC(C)C)C(=O)N[C@@H](CC(=O)O)C(=O)N[C@H](C(=O)N[C@H](C(=O)N[C@@H](CCCCN)C(=O)N[C@H]1CSSC[C@@H](C(=O)O)NC(=O)[C@H](C)NC(=O)[C@H]([C@@H](C)O)NC(=O)[C@H]([C@@H](C)CC)NC(=O)[C@H](CCCCN)NC1=O)[C@@H](C)CC)[C@@H](C)O)C(C)C [GIMDSVKNAAKNLAGQLLDTIKCKITAC],25 µM,–
CC[C@H](C)[C@H](NC(=O)[C@H](CCCN=C(N)N)NC(=O)[C@H](CCCCN)NC(=O)[C@H](CC(C)C)NC(=O)[C@H](CC(C)C)NC(=O)CN)C(=O)N[C@@H](CCCCN)C(=O)N[C@@H](CO)C(=O)N[C@@H](CC(C)C)C(=O)N[C@@H](CC(C)C)C(N)=O [GLLKRIKSLL],100 µM,–
CC[C@H](C)[C@H](NC(=O)[C@H](CCCN=C(N)N)NC(=O)[C@H](CCCCN)NC(=O)[C@H](CC(C)C)NC(=O)[C@H](CCSC)NC(=O)CN)C(=O)N[C@@H](CCCCN)C(=O)N[C@H](C(=O)N[C@@H](CC(C)C)C(=O)N[C@@H](CCSC)C(N)=O)[C@@H](C)O [GMLKRIKTLM],> 200 µM,–

# From DBAASP
